For test [1], the system named is human pancreatic cancer cell line DanG. Put plainly: Orthotopic DanG pancreatic cancer xenograft, tumor volume. The class given is in vivo, nude mice.
Test [2] concerns the target ED-B domain of fibronectin (Homo sapiens, UniProt P02751). The following applies: cited from earlier work.

Sequence of ED-B domain of fibronectin (P02751 1271-1359 limits assumed): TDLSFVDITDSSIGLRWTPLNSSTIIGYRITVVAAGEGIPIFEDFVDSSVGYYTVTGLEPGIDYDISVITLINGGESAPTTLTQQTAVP

Regarding `Nc1ccn([C@@H]2O[C@H](CO)[C@@H](O)C2(F)F)c(=O)n1` [gemcitabine, 2′-deoxy-2′,2′-difluorocytidine], the “mice with complete remission” value in test [1] (gemcitabine 250 mg/kg BW days 7, 14, L19IL2 4.29 MIU/kg BW days 8-12, 15-19, or both) is “no complete remission”. The “pancreatic tumor volume, % compared to control mice” value in test [1] (gemcitabine i.p. 250 mg/kg BW once weekly (day 7 and 14), day 21) was 28%.

Take “scFv L19: human homodimeric single chain Fv antibody fragment L19 specific for the ED-B domain of fibronectin”: in test [2], the “binding affinity for ED-B” value is “picomolar”.
